Each compound was assayed against T1, GST-Xa-hAAK1 (Homo sapiens, UniProt Q2M2I8) (assay: AAK1 Kinase Assay). Settings: IC50 (nM), ATP 22 μM; 3 hours at room temperature; Caliper LabChip 3000.
T1 construct: made in house
Type: biochemical
Method: The assays were performed in U-bottom 384-well plates. […] The reactions were initiated by the combination of bacterially expressed, GST-Xa-hAAK1 with substrates and test compounds. The reactions were incubated at room temperature for 3 hours and terminated by adding 60 μl of 35 mM EDTA buffer to each sample. The reactions were analyzed on the Caliper LabChip 3000 (Caliper, Hopkinton, Mass.) by electrophoretic separation of the fluorescent substrate and phosphorylated product. […] Compounds were dissolved at 10 mM in dimethylsulfoxide (DMSO) and evaluated at eleven concentrations. IC50 values were derived by non-linear regression analysis.

T1 sequence (Q2M2I8 whole entry): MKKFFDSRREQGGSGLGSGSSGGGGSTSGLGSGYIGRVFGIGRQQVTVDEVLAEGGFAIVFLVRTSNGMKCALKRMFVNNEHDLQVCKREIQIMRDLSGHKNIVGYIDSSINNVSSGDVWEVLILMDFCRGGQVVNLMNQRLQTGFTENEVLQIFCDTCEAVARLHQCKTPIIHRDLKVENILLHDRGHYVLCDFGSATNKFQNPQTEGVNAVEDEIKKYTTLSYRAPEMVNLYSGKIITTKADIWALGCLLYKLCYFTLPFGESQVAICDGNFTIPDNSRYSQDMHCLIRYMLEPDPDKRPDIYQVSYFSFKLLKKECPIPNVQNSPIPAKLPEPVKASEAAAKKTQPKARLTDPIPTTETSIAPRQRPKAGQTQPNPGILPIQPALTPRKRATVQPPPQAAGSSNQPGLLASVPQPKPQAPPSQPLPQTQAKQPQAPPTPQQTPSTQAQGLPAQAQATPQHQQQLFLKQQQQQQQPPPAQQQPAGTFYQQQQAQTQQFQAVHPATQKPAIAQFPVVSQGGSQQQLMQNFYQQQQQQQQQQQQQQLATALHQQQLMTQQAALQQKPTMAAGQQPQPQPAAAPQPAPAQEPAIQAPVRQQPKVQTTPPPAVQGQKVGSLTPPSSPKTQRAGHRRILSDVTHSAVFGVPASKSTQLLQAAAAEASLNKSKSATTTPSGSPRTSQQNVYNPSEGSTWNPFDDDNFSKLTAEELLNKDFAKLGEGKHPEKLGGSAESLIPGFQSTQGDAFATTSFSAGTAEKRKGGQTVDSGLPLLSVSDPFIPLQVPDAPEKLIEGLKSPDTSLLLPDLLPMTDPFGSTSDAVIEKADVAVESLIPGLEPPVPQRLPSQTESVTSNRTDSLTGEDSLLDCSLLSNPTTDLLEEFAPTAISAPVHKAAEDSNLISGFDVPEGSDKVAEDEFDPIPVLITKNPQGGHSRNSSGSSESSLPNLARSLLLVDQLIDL

`COc1cc(NC(=O)[C@H](N)CC(C)(C)C)c(F)cc1-c1cnco1` (stereo in doubt) [Example 97, 2-Amino-N-(2-fluoro-5-methoxy-4-(oxazol-5-yl)phenyl)-4,4-dimethylpentanamide] and `COc1cc(NC(=O)[C@@H](N)CC(C)C)c(F)cc1-c1cnco1` [Example 99, (S)-2-Amino-N-(2-fluoro-5-methoxy-4-(oxazol-5-yl)phenyl)-4-methylpentanamide] are within 1.5-fold of each other in IC50: 630 nM for the first, 780 nM for the second.

Going from `COc1cc(NC(=O)[C@H](N)CC(C)C)c(Cl)cc1-c1cnco1` [Example 27, (R)-2-Amino-N-(2-chloro-5-methoxy-4-(oxazol-5-yl)phenyl)-4-methylpentanamide] to `COc1cc(NC(=O)[C@H](N)CC(C)C)c(F)cc1-c1cnco1` [Example 98, (R)-2-Amino-N-(2-fluoro-5-methoxy-4-(oxazol-5-yl)phenyl)-4-methylpentanamide], the IC50 rises from 54 nM to 1120 nM (21-fold). The first is the more potent here.

`COc1cc(NC(=O)[C@@H]2CCCCN2)ccc1-c1cnco1` [Example 73, (S)—N-(3-Methoxy-4-(oxazol-5-yl)phenyl)piperidine-2-carboxamide] and `COc1cc(NC(=O)[C@H]2C[C@H](F)CN2)ccc1-c1cnco1` [Example 89, (2R,4S)-4-Fluoro-N-(3-methoxy-4-(oxazol-5-yl)phenyl)pyrrolidine-2-carboxamide] are within 1.5-fold of each other in IC50: 1500 nM for the first, 2000 nM for the second.

Compared with `COc1cc(NC(=O)[C@H](N)CC(C)C)ccc1-c1nncs1` [Example 23, (R)-2-Amino-N-(3-methoxy-4-(1,3,4-thiadiazol-2-yl)phenyl)-4-methylpentanamide], `COc1cc(NC(=O)[C@H](N)CC(C)C)ccc1-c1cncs1` [Example 21, (R)-2-Amino-N-(3-methoxy-4-(thiazol-5-yl)phenyl)-4-methylpentanamide] is 19-fold lower in IC50: 5100 nM for the first, 275 nM for the second.

`COc1cc(NC(=O)[C@@H](CC(C)C)NCc2ccc(C)cc2)ccc1-c1cnco1` [Example 63, (R)—N-(3-Methoxy-4-(oxazol-5-yl)phenyl)-4-methyl-2-((4-methylbenzyl)amino)pentanamide] and `COc1cc(NC(=O)[C@@H](CC(C)C)NCc2ccsc2)ccc1-c1cnco1` [Example 65, (R)—N-(3-Methoxy-4-(oxazol-5-yl)phenyl)-4-methyl-2-((thiophen-3-ylmethyl)amino)pentanamide] are within 1.5-fold of each other in IC50: 540 nM for the first, 370 nM for the second.

`COc1cc(NC(=O)[C@@H](CC(C)C)NCc2cnn(C)c2)ccc1-c1cnco1` [Example 64, (R)—N-(3-Methoxy-4-(oxazol-5-yl)phenyl)-4-methyl-2-(((1-methyl-1H-pyrazol-4-yl)methyl)amino)pentanamide] and `COc1cc(NC(=O)[C@@H](CC(C)C)NCc2ccccc2O)ccc1-c1cnco1` [Example 62] are within 1.5-fold of each other in IC50: 150 nM for the first, 220 nM for the second.

First: CC(C)C[C@@H](N)C(=O)Nc1ccc(-c2cnco2)c(O)c1 [Example 16, (R)-2-Amino-N-(3-hydroxy-4-(oxazol-5-yl)phenyl)-4-methylpentanamide]
Second: CC(C)C[C@@H](N)C(=O)Nc1ccc(-c2cnco2)c(Br)c1 [Example 12, (R)-2-Amino-N-(3-bromo-4-(oxazol-5-yl)phenyl)-4-methylpentanamide]
The IC50 of the first is 1.8-fold higher: 100 nM for the first, 55 nM for the second.

First: CCN(C(=O)[C@H](N)CC(C)C)c1ccc(-c2cnco2)c(OC)c1 [Example 10, (R)-2-Amino-N-ethyl-N-(3-methoxy-4-(oxazol-5-yl)phenyl)-4-methylpentanamide]
Second: COc1cc(NC(=O)[C@@H](N)CC(C)C)ccc1-c1cnco1 [Example 5, (S)-2-Amino-N-(3-methoxy-4-(oxazol-5-yl)phenyl)-4-methylpentanamide]
The IC50 of the first is 48-fold higher: 5010 nM for the first, 104 nM for the second. The second is the more potent here.

`CCC[C@H](N)C(=O)Nc1ccc(-c2cnco2)c(OC)c1` [Example 51, (S)-2-Amino-N-(3-methoxy-4-(oxazol-5-yl)phenyl)pentanamide] and `COc1cc(NC(=O)[C@H](N)CC(C)(C)C)ccc1-c1cnco1` [Example 74, (R)-2-Amino-N-(3-methoxy-4-(oxazol-5-yl)phenyl)-4,4-dimethylpentanamide] are within 1.5-fold of each other in IC50: 590 nM for the first, 680 nM for the second.

First: COc1cc(NC(=O)[C@H](N)CC(C)C)c(C#N)cc1-c1cnco1 [Example 101, (R)-2-Amino-N-(2-cyano-5-methoxy-4-(oxazol-5-yl)phenyl)-4-methylpentanamide]
Second: CC(C)C[C@@H](N)C(=O)Nc1ccc(-c2cnco2)c(C#N)c1 [Example 108, (R)-2-Amino-N-(3-cyano-4-(oxazol-5-yl)phenyl)-4-methylpentanamide]
The IC50 of the first is 1.9-fold lower: 25 nM for the first, 47 nM for the second. The first is the more potent here.

First: COc1cc(NC(=O)C(CC(C)C)N2CCC(N)CC2)ccc1-c1cnco1 (stereo not shown) [Example 33, 2-(4-Aminopiperidin-1-yl)-N-(3-methoxy-4-(oxazol-5-yl)phenyl)-4-methylpentanamide]
Second: COc1cc(NC(=O)C(CC(C)C)N2CCC(N)C2)ccc1-c1cnco1 (stereo not shown) [Example 30, 2-(3-Aminopyrrolidin-1-yl)-N-(3-methoxy-4-(oxazol-5-yl)phenyl)-4-methylpentanamide]
The IC50 of the first is 3.6-fold higher: 2100 nM for the first, 590 nM for the second.

First: COc1cc(NC(=O)[C@@H]2NCCC[C@@H]2C(C)C)ccc1-c1cnco1 [Example 88, (2R,3R)-3-Isopropyl-N-(3-methoxy-4-(oxazol-5-yl)phenyl)piperidine-2-carboxamide]
Second: COc1cc(NC(=O)C2NCCC2C(C)C)ccc1-c1cnco1 (single isomer, unassigned) [Example 36, 3-Isopropyl-N-(3-methoxy-4-(oxazol-5-yl)phenyl)pyrrolidine-2-carboxamide]
The IC50 of the first is 6-fold lower: 8 nM for the first, 48 nM for the second.

Compared with `COc1cc(NC(=O)[C@@H]2CCCN2C(=O)C(C)C)ccc1-c1cnco1` [Example 82, (S)-1-Isobutyryl-N-(3-methoxy-4-(oxazol-5-yl)phenyl)pyrrolidine-2-carboxamide], `COc1cc(NC(=O)C2CCCCN2C(=O)C(C)C)ccc1-c1cnco1` (stereo not shown) [Example 80, 1-Isobutyryl-N-(3-methoxy-4-(oxazol-5-yl)phenyl)piperidine-2-carboxamide] is 2.9-fold lower in IC50: 1800 nM for the first, 630 nM for the second. The second is the more potent here.

First: COc1cc(NC(=O)[C@H](N)CC(C)C)ccc1-c1cn[nH]n1 [Example 19, (R)-2-Amino-N-(3-methoxy-4-(2H-1,2,3-triazol-4-yl)phenyl)-4-methylpentanamide]
Second: COc1cc(NC(=O)[C@H](N)CC(C)C)ccc1-c1ccnnc1 [Example 22, (R)-2-Amino-N-(3-methoxy-4-(pyridazin-4-yl)phenyl)-4-methylpentanamide]
The IC50 of the first is 2.5-fold lower: 56 nM for the first, 140 nM for the second.

Going from `CC(C)C[C@@H](N)C(=O)Nc1ccc(-c2ccncc2)cc1` [Example 116, (R)-2-Amino-4-methyl-N-(4-(pyridin-4-yl)phenyl)pentanamide] to `COc1cc(NC(=O)[C@H](N)CC(C)C)ccc1-c1ccncc1` [Example 20, (R)-2-Amino-N-(3-methoxy-4-(pyridin-4-yl)phenyl)-4-methylpentanamide], the IC50 rises from 25 nM to 63 nM (2.5-fold). The first is the more potent here.

Going from `COc1cc(NC(=O)[C@H](N)CC2CC2)ccc1-c1cnco1` [Example 9, (R)-2-Amino-3-cyclopropyl-N-(3-methoxy-4-(oxazol-5-yl)phenyl)propanamide] to `COc1cc(NC(=O)[C@H](N)CC2CCCCC2)ccc1-c1cnco1` [Example 56, (R)-2-Amino-3-cyclohexyl-N-(3-methoxy-4-(oxazol-5-yl)phenyl)propanamide], the IC50 rises from 115 nM to 950 nM (8.3-fold).

First: COc1cc(NC(=O)[C@H](N)C2CCCC2)ccc1-c1cnco1 [Example 3, (R)-2-Amino-2-cyclopentyl-N-(3-methoxy-4-(oxazol-5-yl)phenyl)acetamide]
Second: COc1cc(NC(=O)[C@H](N)[C@H](C)O)ccc1-c1cnco1 [Example 77, (2R,3S)-2-Amino-3-hydroxy-N-(3-methoxy-4-(oxazol-5-yl)phenyl)butanamide]
The IC50 of the first is 15-fold lower: 53 nM for the first, 810 nM for the second.

Compared with `CNc1ccc2ncc(-c3ccc(NC(=O)[C@H](N)CC(C)C)cc3OC)n2n1` [Example 49, (R)-2-Amino-N-(3-(methoxy)-4-(6-(methylamino)imidazo[1,2-b]pyridazin-3-yl)phenyl)-4-methylpentanamide], `COc1cc(NC(=O)[C@H](N)CC(C)C)ccc1-n1ccnc1` [Example 25, (R)—N-(4-(1H-Imidazol-1-yl)-3-methoxyphenyl)-2-amino-4-methylpentanamide] is 36-fold higher in IC50: 90 nM for the first, 3250 nM for the second. The first is the more potent here.

Going from `CC(C)C[C@@H](N)C(=O)Nc1ccc(-c2cnco2)c(C(F)(F)F)c1` [Example 11, (R)-2-Amino-4-methyl-N-(4-(oxazol-5-yl)-3-(trifluoromethyl)phenyl)pentanamide] to `COc1cc(NC(=O)[C@H](O)CC(C)C)ccc1-c1cnco1` [Example 34, (R)-2-Hydroxy-N-(3-methoxy-4-(oxazol-5-yl)phenyl)-4-methylpentanamide], the IC50 falls from 1520 nM to 202 nM (7.5-fold).

First: COc1cc(NC(=O)C2CNCCN2C(C)C)ccc1-c1cnco1 (stereo not shown) [Example 86, 1-Isopropyl-N-(3-methoxy-4-(oxazol-5-yl)phenyl)piperazine-2-carboxamide]
Second: COc1cc(NC(=O)C2NCCC2C(C)C)ccc1-c1cnco1 (single isomer, unassigned) [Example 39, 3-Isopropyl-N-(3-methoxy-4-(oxazol-5-yl)phenyl)pyrrolidine-2-carboxamide]
The IC50 of the first is 1.8-fold higher: 52 nM for the first, 29 nM for the second. The second is the more potent here.

Going from `COc1cc(NC(=O)C(CC(C)C)NC2CNC2)ccc1-c1cnco1` (stereo not shown) [Example 32, 2-(Azetidin-3-ylamino)-N-(3-methoxy-4-(oxazol-5-yl)phenyl)-4-methylpentanamide] to `COc1cc(NC(=O)C2NCCC2C(C)C)ccc1-c1cnco1` (single isomer, unassigned) [Example 38, 3-Isopropyl-N-(3-methoxy-4-(oxazol-5-yl)phenyl)pyrrolidine-2-carboxamide], the IC50 falls from 1140 nM to 110 nM (10-fold). The second is the more potent here.

`COc1cc(NC(=O)[C@H]2C[C@H](OC)CN2)ccc1-c1cnco1` [Example 78, (2R,4S)-4-Methoxy-N-(3-methoxy-4-(oxazol-5-yl)phenyl)pyrrolidine-2-carboxamide] showed an IC50 of 2900 nM.

From patent US10253027B2, “Aryl lactam kinase inhibitors” (Bristol-Myers Squibb Company, priority 2013, dated 2019)
